Columns and labels:
recombinant DGAT-1 = test system: recombinant DGAT-1; parameters: method as in PMID 23242135; settings: recombinant DGAT-1, [14C] oleoyl-CoA as acyl-donor; cited from earlier work
HCV IRES = assay: HCV IRES-dependent translation, dual luciferase reporter in Huh7.5 cells; format: cell-based, hepatitis C virus; settings: up to 10 μM
Procedure: A dual luciferase reporter plasmid, which expresses firefly and renila luciferases through cap and HCV IRES-dependent translation, was transfected into Huh7.5 cells in the presence of 10j. Dual luciferase assay was conducted as previously described.

O=C(NCc1ccco1)c1ccc2[nH]c(COc3ccc(C45CC6CC(CC(C6)C4)C5)cc3)nc2c1 [10j, 2-{[4-(adamant-1yl)phenoxy]methyl)-N-(furan-2-ylmethyl)-1H-benzo[d]imidazole-5-carboxamide]
IC50 (recombinant DGAT-1): 9 µM
HCV IRES-dependent translation (HCV IRES): remained unaltered
